From patent US4404138A, “3-[2-(Azabicyclo) ethyl]-1,2,3,4-tetrahydro-5H-[1]benzopyrano[3,4-c]pyridin-5-ones” (Warner-Lambert Company, priority 1982, dated 1983)
Where two headings read alike, the source gives them in different places.

Assays:
[1] = system: pilocarpine-induced bronchospasm and salivary flow in mongrel dogs; assay: Pilocarpine-induced bronchospasm and salivation in anesthetized mongrel dogs; assay type: in vivo; conditions: for ED50: Canis lupus familiaris, anesthetized dogs, pilocarpine nitrate 0.2 mg/kg/hr infusion, cumulative IV doses; for Pulmonary Selectivity*: value >1 indicates the compound is more potent as a bronchodilator than as an antisecretory agent
Procedure: In an additional testing procedure, mongrel dogs of either sex, 10.6 to 15.3 kg, are anesthetized with sodium pentobarbital, 30 mg/kg IV and then prepared for the monitoring of pulmonary mechanics. A Buxco pulmonary mechanics computer is used to calculate pulmonary resistance, dynamic compliance, and tidal volume from transpulmonary pressure and flow data. Respiratory rate, heart rate and mean arterial blood pressure are also monitored. The femoral vein is cannulated for the delivery of drugs.
Pilocarpine nitrate (0.2 mg/kg/hr) is than infused to induce a bronchospasm and salivary flow. […] Salivary output is collected from a catheterized Wharton's duct at five minute intervals. After salivation has stabilized, three control collections are taken at five minute intervals followed by a series of cumulative IV doses of test compound (1, 3, 10, 30, 100, 300, 1000, 3000, and 10,000 μg/kg) that are injected every five minutes for 45 minutes.
The percent inhibition of both the bronchospasm and salivation are calculated for each dose with a return to prepilocarpine resistance levels or cessation of salivation equal to a 100% inhibition.

[2] = system: Conscious guinea pigs exposed to an aerosol of methacholine; assay: Methacholine aerosol collapse time in conscious guinea pigs (anticholinergic test); assay type: in vivo; conditions: 25 mg/kg intraperitoneally, 10 minutes methacholine aerosol; for (Minutes Protection): collapse time, Control 1.9 to 2.0
Procedure: Conscious guinea pigs, six at a time, are put into a sealed chamber and exposed for 10 minutes to an aerosol of methacholine.

[3] = inhibition of bronchospasm, read-out: ID50 μg/kg Bronchospasm
[4] = inhibition of salivation, read-out: ID50 μg/kg Salivation

SMILES	ED50 [1, 3] [µg/kg]	ED50 [1, 4] [µg/kg]	Pulmonary Selectivity* [1]	(Minutes Protection) [2] [min]	also measured
COc1ccc2c3c(c(=O)oc2c1)CN(CCN1CC2CCC1CC2)CC3 [R1=H, R2=MeO, R3=H, X=drawing 16]	63	102	1.61	–	–
COc1cc2oc(=O)c3c(c2cc1OC)CCN(CCN1CC2CCC(CC2)C1)C3 [R1=MeO, R2=MeO, R3=H, X=drawing 15]	113	530	4.7	–	–
Cc1cc2oc(=O)c3c(c2cc1C)CCN(CCN1CC2CCC(CC2)C1)C3 [R1=Me, R2=Me, R3=H, X=drawing 10, 3-[2-(3-Azabicyclo[3.2.2]non-3-yl)ethyl]-1,2,3,4-tetrahydro-8,9-dimethyl-5H-[1]benzopyrano[3,4-c]pyridin-5-one]	–	–	–	5.1	–
CC(=O)Nc1cc2c3c(c(=O)oc2cc1C)CN(CCN1CC2CCC(CC2)C1)CC3 [R1=NHCOCH3, R2=Me, R3=H, X=drawing 10, N-{3-[2-(3-Azabicyclo[3.2.2]non-3-yl)ethyl]-1,2,3,4-tetrahydro-8-methyl-5-oxo-2H-[1]benzopyrano[3,4-c]pyridin-9-yl}-acetamide]	–	–	–	–	(Minutes Protection), given in words ([2]; time not given): Active
O=c1oc2cc3c(cc2c2c1CN(CCN1CC4CCC(CC4)C1)CC2)OCO3 [R1+R2=OCH2O, R3=H, X=drawing 10, 3-[2-(3-Azabicyclo[3.2.2]non-3-yl)ethyl]-1,2,3,4-tetrahydro-5H-[1,3]benzodioxolo[5',6':5,6]pyrano[3,4-c]pyridin-5-one]	–	–	–	2.3	–
COc1cc2oc(=O)c3c(c2cc1OC)CCN(CCN1CC2CCC1CC2)C3 [R1=MeO, R2=MeO, R3=H, X=drawing 11, 3-[2-(2-Azabicyclo[2.2.2]oct-2-yl)ethyl]-1,2,3,4-tetrahydro-8,9-dimethoxy-5H-[1]benzopyrano[3,4-c]pyridine-5-one]	–	–	–	7.6	–
CC(C)(C)c1ccc2c3c(c(=O)oc2c1)CN(CCN1CC2CCC(CC2)C1)CC3.Cl.Cl [R1=H, R2=CMe3, R3=H, X=drawing 10, 3-[2-(3-Azabicyclo[3.2.2]non-3-yl)ethyl]-8-(1,1-dimethylethyl)-1,2,3,4-tetrahydro-5H-[1]benzopyrano[3,4-c]pyridin-5-one, dihydrochloride]	–	–	–	3.4	–
Br.Br.O=c1oc2cc(O)c(O)cc2c2c1CN(CCN1CC3CCC(CC3)C1)CC2 [R1=OH, R2=OH, R3=H, X=drawing 10, 3-[2-(3-Azabicyclo[3.2.2]non-3-yl)ethyl]-1,2,3,4-tetrahydro-8,9-dihydroxy-5H-[1]benzopyrano[3,4-c]pyridin-5-one dihydrobromide]	–	–	–	2.1	–
COc1ccc2c3c(c(=O)oc2c1)CN(CCN1CC2CCC(CC2)C1)CC3 [R1=H, R2=MeO, R3=H, X=drawing 14]	35	104	3	–	–
